Assays:
Assay in all cases: Drug affinity chromatography with c-ponatinib and LC-MS/MS (ponatinib interactome)
Format in all cases: binding
[1] = target: T1, proteins of U2OS cell lysate (Homo sapiens, UniProt O15372)
T1 construct: Proteins enriched by c-ponatinib from U2OS cell lysate; endogenous in cells; host or cells: U2OS cell lysate
Method: (§1) Drug affinity chromatography
(§2) U2OS cells were grown until approximately 80% confluent before being pelleted and washed with PBS. Cell pellets were subsequently lysed in buffer A (50 mM Tris pH 7.5, 0.8% v/v NP-40, 5% v/v glycerol, 1.5 mM MgCl2, 100 mM NaCl, 25 mM NaF, 1 mM Na3VO4, 1 mM PMSF, 1mM DTT, 10 μg/mL TLCK, 1 μg/ml Leupeptin, 1 μg/ml Aprotinin, 1 μg/ml soy bean trypsin) and lysates prepared […]
(§3) concentration was determined and lysates stored at -80 °C.
(§4) Briefly, 100 μl of bead slurry (50% in isopropanol) were used for each pulldown experiment. Beads were washed with DMSO (3 × 500 μl), and resuspended in DMSO (50 μl), to which the amine (0.025 μmol) and triethylamine (0.75 μl) were added. The beads were incubated at room temperature for 16 h, and depletion of free amine from the supernatant was determined by LC-MS analysis. Ethanolamine (2.5 μl) was then added to block any unreacted NHS sites, and the beads incubated for a further 16 h. Derivatized beads were then washed with DMSO (3 × 500 μl), buffer A (3 × 1 ml), and incubated with cell lysates (2 mg of protein per pulldown, at 6 […]
(§5) Beads and treated lysates were incubated for 2 h at 4 °C before washing with buffer A (5 ml), Buffer B (50 mM HEPES pH 7.5, 100 mM NaCl, 500 μM EDTA, 2.5 ml), and eluted with formic acid (100 mM, 250 μl). Samples were neutralized with triethylammoniumbicarbonate (TEAB, 1M, 62.5 μl) and stored at -20 °C until preparation for proteomic analysis.
(§6) Samples were reduced with DTT (10 mM final concentration) for 30 min at room temperature, alkylated with iodoacetamide (55 mM final concentration) for 30 min at room temperature, diluted to 300 μl with TEAB, and incubated with trypsin (6 μl, 0.2 mg/ml) overnight at 37 °C. The digests were desalted using SEPAC lite columns (Waters), eluted with 69 % v/v MeCN, 0.1 % v/v FA in H2O (1 ml) and dried in vacuo. Dried peptides were stored at -20 °C before resuspension in 2 % v/v MeCN, 1 % v/v FA in H2O (20 μl) for LC-MS/MS analysis.
(§7) LC-MS/MS data acquisition
(§8) Mass spectrometry data was acquired at the Discovery Proteomics Facility (University of Oxford).
(§9) Digested samples were analyzed by nano-UPLC–MS/MS using a Dionex Ultimate 3000 nano UPLC with EASY spray column (75 μm × 500 mm, 2 μm particle size, Thermo Fisher Scientific) with a 60 min gradient of 0.1 % (v/v) formic acid in 5 % (v/v) DMSO to 0.1 % (v/v) formic acid with 35 % (v/v) acetonitrile in 5 % (v/v) DMSO at a flow rate of approximately 250 nl min−1 (600 bar per 40 °C column temperature). Mass spectrometry data was acquired either with an Orbitrap Q Exactive (Survey scans acquired at a resolution of 70,000 @ 200m/z and the 15 most abundant precursors were selected for HCD fragmentation), or an Orbitrap Q Exactive High Field (HF) instrument (survey scans were […]

[2] = target: T2, proteins of U2OS cell lysate (Homo sapiens, UniProt O75369)
T2 construct: Proteins enriched by c-ponatinib from U2OS cell lysate; endogenous in cells; host or cells: U2OS cell lysate
T2 sequence (O75369 whole entry): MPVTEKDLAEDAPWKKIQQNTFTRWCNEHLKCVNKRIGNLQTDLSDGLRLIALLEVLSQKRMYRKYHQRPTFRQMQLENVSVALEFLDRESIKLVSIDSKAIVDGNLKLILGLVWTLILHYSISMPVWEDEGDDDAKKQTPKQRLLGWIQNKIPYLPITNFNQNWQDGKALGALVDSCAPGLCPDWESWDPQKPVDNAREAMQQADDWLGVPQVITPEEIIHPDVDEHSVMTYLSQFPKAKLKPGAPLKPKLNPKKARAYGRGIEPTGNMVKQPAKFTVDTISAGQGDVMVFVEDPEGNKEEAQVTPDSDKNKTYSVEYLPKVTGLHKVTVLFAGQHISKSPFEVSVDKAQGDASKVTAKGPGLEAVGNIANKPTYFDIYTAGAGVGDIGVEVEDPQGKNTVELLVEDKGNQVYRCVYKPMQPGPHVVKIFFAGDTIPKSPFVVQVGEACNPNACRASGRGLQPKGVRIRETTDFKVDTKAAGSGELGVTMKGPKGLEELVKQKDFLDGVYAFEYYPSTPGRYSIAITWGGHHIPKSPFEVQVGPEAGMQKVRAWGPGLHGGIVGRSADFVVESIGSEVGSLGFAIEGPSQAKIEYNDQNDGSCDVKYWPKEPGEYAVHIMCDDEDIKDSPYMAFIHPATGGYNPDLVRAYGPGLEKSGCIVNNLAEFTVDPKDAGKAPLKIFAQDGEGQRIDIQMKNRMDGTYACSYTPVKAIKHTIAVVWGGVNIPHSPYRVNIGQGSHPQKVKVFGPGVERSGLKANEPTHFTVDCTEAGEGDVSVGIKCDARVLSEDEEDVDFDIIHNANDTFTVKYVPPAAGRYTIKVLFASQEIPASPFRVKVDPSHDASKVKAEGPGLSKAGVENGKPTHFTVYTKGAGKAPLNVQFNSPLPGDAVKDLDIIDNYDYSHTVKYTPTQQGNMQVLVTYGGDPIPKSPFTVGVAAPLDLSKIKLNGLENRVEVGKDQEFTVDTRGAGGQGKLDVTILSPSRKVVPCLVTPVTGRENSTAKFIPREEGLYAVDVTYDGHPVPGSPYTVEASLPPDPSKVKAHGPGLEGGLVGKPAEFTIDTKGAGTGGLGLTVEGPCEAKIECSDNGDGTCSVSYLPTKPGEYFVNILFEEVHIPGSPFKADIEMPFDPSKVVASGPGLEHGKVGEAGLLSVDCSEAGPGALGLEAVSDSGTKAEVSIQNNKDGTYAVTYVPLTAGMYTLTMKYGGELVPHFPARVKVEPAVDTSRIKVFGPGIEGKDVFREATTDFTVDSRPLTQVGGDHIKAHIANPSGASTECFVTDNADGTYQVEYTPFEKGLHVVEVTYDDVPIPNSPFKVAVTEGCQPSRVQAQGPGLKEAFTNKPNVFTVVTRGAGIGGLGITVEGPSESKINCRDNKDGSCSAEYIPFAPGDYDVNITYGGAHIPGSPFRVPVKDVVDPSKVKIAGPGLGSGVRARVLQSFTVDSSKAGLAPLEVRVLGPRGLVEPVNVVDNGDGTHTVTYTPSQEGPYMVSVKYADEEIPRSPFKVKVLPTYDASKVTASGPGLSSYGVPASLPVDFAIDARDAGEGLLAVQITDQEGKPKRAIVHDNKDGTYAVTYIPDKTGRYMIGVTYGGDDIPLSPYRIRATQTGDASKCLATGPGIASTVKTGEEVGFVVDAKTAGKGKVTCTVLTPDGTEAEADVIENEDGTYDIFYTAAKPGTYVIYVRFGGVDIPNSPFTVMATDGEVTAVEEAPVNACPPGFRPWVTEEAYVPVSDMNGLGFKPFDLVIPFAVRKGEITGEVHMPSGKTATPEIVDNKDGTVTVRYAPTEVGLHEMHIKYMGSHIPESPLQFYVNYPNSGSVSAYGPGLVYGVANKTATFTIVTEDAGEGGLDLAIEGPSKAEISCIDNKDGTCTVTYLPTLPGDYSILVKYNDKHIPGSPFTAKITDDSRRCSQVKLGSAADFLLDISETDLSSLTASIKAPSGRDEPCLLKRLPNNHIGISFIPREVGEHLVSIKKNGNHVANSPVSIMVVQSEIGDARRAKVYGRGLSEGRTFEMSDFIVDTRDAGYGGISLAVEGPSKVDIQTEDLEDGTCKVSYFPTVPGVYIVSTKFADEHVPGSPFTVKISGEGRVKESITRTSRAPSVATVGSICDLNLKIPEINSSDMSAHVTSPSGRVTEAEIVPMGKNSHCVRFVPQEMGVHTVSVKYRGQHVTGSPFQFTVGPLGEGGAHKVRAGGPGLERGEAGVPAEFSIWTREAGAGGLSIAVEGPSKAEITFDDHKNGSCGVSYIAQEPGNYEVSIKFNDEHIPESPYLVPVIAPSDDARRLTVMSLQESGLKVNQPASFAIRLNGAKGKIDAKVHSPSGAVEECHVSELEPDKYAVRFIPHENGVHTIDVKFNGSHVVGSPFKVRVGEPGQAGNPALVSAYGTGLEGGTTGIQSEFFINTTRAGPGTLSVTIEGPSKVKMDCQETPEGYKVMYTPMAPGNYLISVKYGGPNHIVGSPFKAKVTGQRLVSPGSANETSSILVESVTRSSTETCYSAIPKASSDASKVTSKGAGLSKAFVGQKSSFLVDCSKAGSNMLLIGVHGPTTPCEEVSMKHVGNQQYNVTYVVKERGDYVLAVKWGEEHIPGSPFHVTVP
Method: as §1, §2, §3, §4, §5, §6, §7, §8, §9

[3] = target: T3, proteins of U2OS cell lysate (Homo sapiens, UniProt P04406)
T3 construct: Proteins enriched by c-ponatinib from U2OS cell lysate; endogenous in cells; host or cells: U2OS cell lysate
T3 sequence (P04406 whole entry): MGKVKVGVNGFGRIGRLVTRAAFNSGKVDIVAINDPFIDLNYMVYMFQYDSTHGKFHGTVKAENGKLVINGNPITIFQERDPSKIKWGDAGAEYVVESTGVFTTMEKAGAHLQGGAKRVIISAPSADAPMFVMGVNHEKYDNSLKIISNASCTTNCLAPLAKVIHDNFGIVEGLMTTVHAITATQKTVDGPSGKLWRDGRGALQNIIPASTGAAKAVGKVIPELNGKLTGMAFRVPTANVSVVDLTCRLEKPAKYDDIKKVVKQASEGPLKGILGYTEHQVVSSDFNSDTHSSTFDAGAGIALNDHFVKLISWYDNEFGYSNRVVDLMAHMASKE
Method: as §1, §2, §3, §4, §5, §6, §7, §8, §9

[4] = target: T4, proteins of U2OS cell lysate (Homo sapiens, UniProt P17987)
T4 construct: Proteins enriched by c-ponatinib from U2OS cell lysate; endogenous in cells; host or cells: U2OS cell lysate
Method: as §1, §2, §3, §4, §5, §6, §7, §8, §9

[5] = target: T5, proteins of U2OS cell lysate (Homo sapiens, UniProt P28072)
T5 construct: Proteins enriched by c-ponatinib from U2OS cell lysate; endogenous in cells; host or cells: U2OS cell lysate
Method: as §1, §2, §3, §4, §5, §6, §7, §8, §9

[6] = target: T6, proteins of U2OS cell lysate (Homo sapiens, UniProt P29597)
T6 construct: Proteins enriched by c-ponatinib from U2OS cell lysate; endogenous in cells; host or cells: U2OS cell lysate
T6 sequence (P29597 whole entry): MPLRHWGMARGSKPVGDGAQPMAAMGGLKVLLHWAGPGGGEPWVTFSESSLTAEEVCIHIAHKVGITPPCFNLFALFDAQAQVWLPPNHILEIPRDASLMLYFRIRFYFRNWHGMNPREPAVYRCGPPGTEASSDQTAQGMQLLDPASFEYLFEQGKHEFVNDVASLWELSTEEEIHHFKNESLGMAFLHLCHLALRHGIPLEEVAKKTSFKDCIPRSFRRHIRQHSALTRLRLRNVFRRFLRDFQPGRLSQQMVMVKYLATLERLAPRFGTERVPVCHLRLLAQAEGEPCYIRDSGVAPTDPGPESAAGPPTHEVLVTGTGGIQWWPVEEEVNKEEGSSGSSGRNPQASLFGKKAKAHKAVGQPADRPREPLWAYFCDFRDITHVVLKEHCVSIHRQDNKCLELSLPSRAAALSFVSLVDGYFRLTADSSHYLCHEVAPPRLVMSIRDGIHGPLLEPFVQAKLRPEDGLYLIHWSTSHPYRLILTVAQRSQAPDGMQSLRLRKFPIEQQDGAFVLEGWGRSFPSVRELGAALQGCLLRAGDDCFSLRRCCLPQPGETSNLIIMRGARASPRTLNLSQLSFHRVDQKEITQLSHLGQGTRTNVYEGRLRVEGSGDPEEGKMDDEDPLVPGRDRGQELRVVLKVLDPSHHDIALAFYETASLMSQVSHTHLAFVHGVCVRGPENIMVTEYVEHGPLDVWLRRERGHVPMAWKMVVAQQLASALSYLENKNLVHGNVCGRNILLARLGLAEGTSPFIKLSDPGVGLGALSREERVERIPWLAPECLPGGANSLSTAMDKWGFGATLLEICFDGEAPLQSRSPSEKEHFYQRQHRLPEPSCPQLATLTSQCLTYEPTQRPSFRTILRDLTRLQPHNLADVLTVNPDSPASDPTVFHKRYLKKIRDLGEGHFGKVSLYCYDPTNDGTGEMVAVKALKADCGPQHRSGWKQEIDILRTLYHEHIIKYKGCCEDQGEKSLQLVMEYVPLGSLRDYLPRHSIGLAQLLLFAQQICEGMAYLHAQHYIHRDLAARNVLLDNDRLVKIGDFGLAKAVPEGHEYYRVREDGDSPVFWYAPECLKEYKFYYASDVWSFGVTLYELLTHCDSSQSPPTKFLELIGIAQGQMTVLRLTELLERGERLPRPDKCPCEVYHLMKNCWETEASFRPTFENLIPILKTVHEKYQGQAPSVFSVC
Method: as §1, §2, §3, §4, §5, §6, §7, §8, §9

[7] = target: T7, proteins of U2OS cell lysate (Homo sapiens, UniProt P48643)
T7 construct: Proteins enriched by c-ponatinib from U2OS cell lysate; endogenous in cells; host or cells: U2OS cell lysate
Method: as §1, §2, §3, §4, §5, §6, §7, §8, §9

[8] = target: T8, proteins of U2OS cell lysate (Homo sapiens, UniProt P62263)
T8 construct: Proteins enriched by c-ponatinib from U2OS cell lysate; endogenous in cells; host or cells: U2OS cell lysate
Method: as §1, §2, §3, §4, §5, §6, §7, §8, §9

[9] = target: T9, proteins of U2OS cell lysate (Homo sapiens, UniProt P62701)
T9 construct: Proteins enriched by c-ponatinib from U2OS cell lysate; endogenous in cells; host or cells: U2OS cell lysate
Method: as §1, §2, §3, §4, §5, §6, §7, §8, §9

[10] = target: T10, proteins of U2OS cell lysate (Homo sapiens, UniProt P62805)
T10 construct: Proteins enriched by c-ponatinib from U2OS cell lysate; endogenous in cells; host or cells: U2OS cell lysate
Method: as §1, §2, §3, §4, §5, §6, §7, §8, §9

[11] = target: T11, proteins of U2OS cell lysate (Homo sapiens, UniProt Q13409)
T11 construct: Proteins enriched by c-ponatinib from U2OS cell lysate; endogenous in cells; host or cells: U2OS cell lysate
Method: as §1, §2, §3, §4, §5, §6, §7, §8, §9

[12] = target: T12, proteins of U2OS cell lysate (Homo sapiens, UniProt Q15428)
T12 construct: Proteins enriched by c-ponatinib from U2OS cell lysate; endogenous in cells; host or cells: U2OS cell lysate
Method: as §1, §2, §3, §4, §5, §6, §7, §8, §9

[13] = target: T13, proteins of U2OS cell lysate (Homo sapiens, UniProt Q15459)
T13 construct: Proteins enriched by c-ponatinib from U2OS cell lysate; endogenous in cells; host or cells: U2OS cell lysate
Method: as §1, §2, §3, §4, §5, §6, §7, §8, §9

[14] = target: T14, proteins of U2OS cell lysate (Homo sapiens, UniProt Q16643)
T14 construct: Proteins enriched by c-ponatinib from U2OS cell lysate; endogenous in cells; host or cells: U2OS cell lysate
Method: as §1, §2, §3, §4, §5, §6, §7, §8, §9

[15] = target: T15, proteins of U2OS cell lysate (Homo sapiens, UniProt Q16891)
T15 construct: Proteins enriched by c-ponatinib from U2OS cell lysate; endogenous in cells; host or cells: U2OS cell lysate
Method: as §1, §2, §3, §4, §5, §6, §7, §8, §9

[16] = target: T16, proteins of U2OS cell lysate (Homo sapiens, UniProt Q99460)
T16 construct: Proteins enriched by c-ponatinib from U2OS cell lysate; endogenous in cells; host or cells: U2OS cell lysate
Method: as §1, §2, §3, §4, §5, §6, §7, §8, §9

[17] = target: T17, proteins of U2OS cell lysate (Homo sapiens, UniProt Q99613)
T17 construct: Proteins enriched by c-ponatinib from U2OS cell lysate; endogenous in cells; host or cells: U2OS cell lysate
Method: as §1, §2, §3, §4, §5, §6, §7, §8, §9

[18] = target: T18, proteins of U2OS cell lysate (Homo sapiens, UniProt Q9BQE3)
T18 construct: Proteins enriched by c-ponatinib from U2OS cell lysate; endogenous in cells; host or cells: U2OS cell lysate
T18 sequence (Q9BQE3 whole entry): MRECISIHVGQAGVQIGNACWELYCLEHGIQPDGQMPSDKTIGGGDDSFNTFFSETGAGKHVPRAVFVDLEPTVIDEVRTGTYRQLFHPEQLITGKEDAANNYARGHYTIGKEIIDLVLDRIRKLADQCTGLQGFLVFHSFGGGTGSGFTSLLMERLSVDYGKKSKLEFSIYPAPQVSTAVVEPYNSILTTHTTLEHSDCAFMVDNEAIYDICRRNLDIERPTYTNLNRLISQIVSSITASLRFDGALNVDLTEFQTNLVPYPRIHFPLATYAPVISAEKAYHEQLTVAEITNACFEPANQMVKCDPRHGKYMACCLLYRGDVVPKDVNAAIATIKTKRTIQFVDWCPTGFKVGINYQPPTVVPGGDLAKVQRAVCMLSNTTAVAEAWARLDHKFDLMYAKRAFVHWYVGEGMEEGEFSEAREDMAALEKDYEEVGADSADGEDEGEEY
Method: as §1, §2, §3, §4, §5, §6, §7, §8, §9

[19] = target: T19, proteins of U2OS cell lysate (Homo sapiens, UniProt Q9UP83)
T19 construct: Proteins enriched by c-ponatinib from U2OS cell lysate; endogenous in cells; host or cells: U2OS cell lysate
Method: as §1, §2, §3, §4, §5, §6, §7, §8, §9

T1 sequence (O15372 whole entry): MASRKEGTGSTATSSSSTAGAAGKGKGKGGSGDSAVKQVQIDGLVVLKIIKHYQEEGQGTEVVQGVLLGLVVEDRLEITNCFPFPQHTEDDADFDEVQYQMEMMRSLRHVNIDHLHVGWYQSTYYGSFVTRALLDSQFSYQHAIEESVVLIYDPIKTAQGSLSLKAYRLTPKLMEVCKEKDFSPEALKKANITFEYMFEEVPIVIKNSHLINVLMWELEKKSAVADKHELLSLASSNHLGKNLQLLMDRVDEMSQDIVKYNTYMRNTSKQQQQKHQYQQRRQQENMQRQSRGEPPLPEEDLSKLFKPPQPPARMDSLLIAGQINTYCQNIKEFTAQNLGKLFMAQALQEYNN

Structure (SMILES): Cc1ccc(C(=O)Nc2ccc(CN3CCN(C)CC3)c(C(F)(F)F)c2)cc1C#Cc1cnc2cccnn12 [PON]
- Average LFQ PON_WT ([1]; EIF3H;EIF3S3, Eukaryotic translation initiation factor 3 subunit H): 23.1902
- Average LFQ PON_WT ([2]; FLNB, Filamin-B): 21.8609
- Average LFQ PON_WT ([3]; GAPDH, Glyceraldehyde-3-phosphate dehydrogenase): 22.9925
- Average LFQ PON_WT ([4]; TCP1, T-complex protein 1 subunit alpha): 22.697
- Average LFQ PON_WT ([5]; PSMB6, Proteasome subunit beta type-6): 22.7359
- Average LFQ PON_WT ([6]; TYK2, Non-receptor tyrosine-protein kinase TYK2): 22.5645
- Average LFQ PON_WT ([7]; CCT5, T-complex protein 1 subunit epsilon): 22.2687
- Average LFQ PON_WT ([8]; RPS14, 40S ribosomal protein S14): 22.2776
- Average LFQ PON_WT ([9]; RPS4X, 40S ribosomal protein S4, X isoform): 22.7536
- Average LFQ PON_WT ([10]; HIST1H4A, Histone H4): 22.1811
- Average LFQ PON_WT ([11]; DYNC1I2, Cytoplasmic dynein 1 intermediate chain 2): 22.2038
- Average LFQ PON_WT ([12]; SF3A2, Splicing factor 3A subunit 2): 22.8464
- Average LFQ PON_WT ([13]; SF3A1, Splicing factor 3A subunit 1): 21.9763
- Average LFQ PON_WT ([14]; DBN1, Drebrin): 22.4964
- Average LFQ PON_WT ([15]; IMMT, Mitochondrial inner membrane protein): 22.0335
- Average LFQ PON_WT ([16]; PSMD1, 26S proteasome non-ATPase regulatory subunit 1): 21.8552
- Average LFQ PON_WT ([17]; EIF3C;EIF3CL, Eukaryotic translation initiation factor 3 subunit C): 21.9967
- Average LFQ PON_WT ([18]; TUBA1C, Tubulin alpha-1C chain): 21.711
- Average LFQ PON_WT ([19]; COG5, Conserved oligomeric Golgi complex subunit 5): 22.09

Structure (SMILES): Cc1ccc(C(=O)Nc2ccc(CN3CCN(CCCN)CC3)c(C(F)(F)F)c2)cc1C#Cc1cnc2cccnn12 [c-ponatinib, reference compound]
- Average LFQ intensity ([1]; captured protein EIF3H;EIF3S3, Rank 114): 23.1902
- Average LFQ intensity ([2]; captured protein FLNB, Rank 198): 21.8609
- Average LFQ intensity ([3]; captured protein GAPDH, Rank 124): 22.9925
- Average LFQ intensity ([4]; captured protein TCP1, Rank 149): 22.697
- Average LFQ intensity ([5]; captured protein PSMB6, Rank 145): 22.7359
- Average LFQ intensity ([6]; captured protein TYK2, Rank 155): 22.5645
- Average LFQ intensity ([7]; captured protein CCT5, Rank 171): 22.2687
- Average LFQ intensity ([8]; captured protein RPS14, Rank 169): 22.2776
- Average LFQ intensity ([9]; captured protein RPS4X, Rank 140): 22.7536
- Average LFQ intensity ([10]; captured protein HIST1H4A, Rank 180): 22.1811
- Average LFQ intensity ([11]; captured protein DYNC1I2, Rank 179): 22.2038
- Average LFQ intensity ([12]; captured protein SF3A2, Rank 134): 22.8464
- Average LFQ intensity ([13]; captured protein SF3A1, Rank 193): 21.9763
- Average LFQ intensity ([14]; captured protein DBN1, Rank 158): 22.4964
- Average LFQ intensity ([15]; captured protein IMMT, Rank 188): 22.0335
- Average LFQ intensity ([16]; captured protein PSMD1, Rank 199): 21.8552
- Average LFQ intensity ([17]; captured protein EIF3C;EIF3CL, Rank 191): 21.9967
- Average LFQ intensity ([18]; captured protein TUBA1C, Rank 213): 21.711
- Average LFQ intensity ([19]; captured protein COG5, Rank 186): 22.09
